Data reported in patent US20250163122A1, “COMPOSITIONS AND METHODS FOR TREATING AIRWAY MUCUS DYSFUNCTION” (BOARD OF REGENTS, THE UNIVERSITY OF TEXAS SYSTEM, priority 2022, published 2025).
“Also recorded” adds a separate entry of the source. Where a SMILES comes first, the peptide text is derived from it. Bridges are numbered along the chain shown (N, C = ends). [ ]: non-standard residue; d: D form. S5 = C=CCCC[C@](C)(N)C(=O)O

Tests used:
[1] = CD spectroscopy, α-helical content of peptides; format: physicochemical; conditions: for helical content, ranking in words: among the peptides tested
Method: CD spectroscopy. CD spectra were measured with an AVIV stop-flow CD spectropolarimeter at 190 to 250 nm using a cell with a 1 mm path-length. The sample containing […] of synthesized peptides in PBS buffer (137 mM NaCl, 2.7 mM KCl, 10 mM Na2HPO4, and 2 mM KH2PO4, pH 7.4) was measured at 20° C. For the correction of the baseline error, the signal from a blank run with PBS buffer was subtracted from all the experimental spectra. The α-helical content of each peptide was calculated by dividing the mean residue ellipticity [φ]222obs by the reported [φ]222obs for a model helical decapeptide (Yang et al., 1986).

[2] = test system: neuronal SNAREs and Syt1; test: Ensemble lipid mixing assay, neuronal PM and SV vesicles; format: biochemical; conditions: for effect on ensemble lipid mixing: with or without Ca2+, peptide concentration-dependent
Excerpt: Vesicle reconstitution. For the ensemble lipid mixing assay, the lipid composition of the SV vesicles was phosphatidylcholine (PC) (46%), phosphatidylethanolamine (PE) (20%), phosphatidylserine (PS) (12%), cholesterol (20%), and 1,1′-dioctadecyl-3,3,3′,3′-tetramethylindodicarbocyanine perchlorate (DiD) (Invitrogen) (2%); for the both neuronal and airway PM vesicles the lipid composition was Brain Total Lipid Extract supplemented 3.5 mol % PIP2, 0.1 mol % biotinylated phosphatidylethanolamine (PE) and 1,1′-dioctadecyl-3,3,3′,3′-tetramethylindocarbocyanine perchlorate (DiI) (Invitrogen). All the lipids are from Avanti Polar Lipids.
A 3-5 fold excess of SNAP-25A or SNAP-23 (with respect to Stx1A or Stx3) and 3.5 mol % PIP2 were added to the protein-lipid mixture for neuronal or airway PM vesicles. […] For the preparation of SV, SG, VAMP2, or VAMP8 vesicles for single vesicle content mixing assay, 50 mM sulforhodamine B (Thermo Fisher Scientific) was added to the protein-lipid mixture. The vesicles subsequently formed during size exclusion chromatography using a Sepharose CL-4B column, packed under near constant pressure by gravity with a peristaltic pump (GE Healthcare) in a 5.5 ml column with a ˜5 ml bed volume that was equilibrated with buffer V (20 mM HEPES, pH 7.4, 90 mM NaCl) supplemented with 20 μM EGTA and 0.1% 2-mercaptoethanol. The eluent was subjected to dialysis into 21 of detergent-free buffer V supplemented with 20 μM EGTA, 0.1% 2-mercaptoethanol, 5 g of Bio-beads SM2 (Bio-Rad) and 0.8 g/L Chelex 100 resin (Bio-Rad). After 4 hours, the buffer was exchanged with 21 of fresh buffer V supplemented with 20 μM EGTA, 0.1% 2-mercaptoethanol and Bio-beads, and the dialysis continued for another 12 h (overnight). […] For ensemble lipid mixing assay, the reconstitution method is the same as that for the single vesicle content mixing assay, except that 50 mM sulforhodamine B was omitted for all the steps.
Bulk lipid mixing experiments with neuronal synaptic proteins. Protein-reconstituted neuronal PM and SV vesicles were mixed at a molar ratio of 1:1, both at 0.1 mM lipid concentration. Lipid mixing is measured by monitoring the fluorescent emission (670 nm) of the DiD dyes in the SV vesicles by FRET using 530 nm laser light excitation of the DiI dyes in neuronal PM vesicles. The fluorescence intensity was monitored in two channels at 570 nm and 670 nm, respectively. Fluorescence changes were recorded with a Varian Cary Eclipse model fluorescence spectrophotometer using a quartz cell of 100 μl with a 5 mm path length. All measurements were performed at 35° C.

| Molecule | helical content, ranking in words [1] | effect on ensemble lipid mixing [2] | helicity / helical content ([1]; in solution, CD [φ]222 vs model helical decapeptide) [%] | effect on Ca2+-triggered ensemble lipid mixing [2] | effect on Ca2+-independent ensemble lipid mixing ([2]; 10 μM and 100 μM peptide) |
| --- | --- | --- | --- | --- | --- |
| CC[C@H](C)[C@H](NC(=O)[C@]1(C)CCCC=CCCC[C@](C)(NC(=O)[C@H](CCC(=O)O)NC(=O)[C@H](CCC(=O)O)NC(C)=O)C(=O)N[C@@H](CCCCN)C(=O)N[C@@H](CC(=O)O)C(=O)N[C@@H](C)C(=O)N1)C(=O)N[C@@H](CCCNC(=N)N)C(=O)N[C@@]1(C)CCCC=CCCC[C@@](C)(C(=O)N[C@@H](CC(=O)O)C(=O)N[C@@H](CCC(=O)O)C(=O)N[C@@H](CCC(N)=O)C(=O)N[C@@H](CS)C(N)=O)NC(=O)[C@H](CCSC)NC(=O)[C@H](C(C)C)NC(=O)[C@H](CC(C)C)NC1=O [SP9, Ac-EE(S5)KDA(S5)IR(S5)LVM(S5)DEQC-amide] (Ac-EE[S5]KDA[S5]IR[S5]LVM[S5]DEQC-NH2; staple 3-7, 10-14) | largest helical content; also recorded: highest α-helicity | substantially inhibited |  |  |  |
| Ac-SKD(S5)GIR(S5)LV(S5)LDE(S5)GEQL-amide (Ac-SKD[S5]GIR[S5]LV[S5]LDE[S5]GEQL-NH2; staple 11-15, 4-8; SMILES CC[C@H](C)[C@@H]1NC(=O)CNC(=O)[C@@](C)(NC(=O)[C@H](CC(=O)O)NC(=O)[C@H](CCCCN)NC(=O)[C@H](CO)NC(C)=O)CCCC=CCCC[C@@](C)(C(=O)N[C@@H](CC(C)C)C(=O)N[C@H](C(=O)N[C@@]2(C)CCCC=CCCC[C@@](C)(C(=O)NCC(=O)N[C@@H](CCC(=O)O)C(=O)N[C@@H](CCC(N)=O)C(=O)N[C@@H](CC(C)C)C(N)=O)NC(=O)[C@H](CCC(=O)O)NC(=O)[C@H](CC(=O)O)NC(=O)[C@H](CC(C)C)NC2=O)C(C)C)NC(=O)[C@H](CCCNC(=N)N)NC1=O) [SP10] | largest helical content | substantially inhibited |  |  |  |
| Ac-SKD(S5)GIR(S5)LVMLDE(S5)GEQ(S5)DR-amide (Ac-SKD[S5]GIR[S5]LVMLDE[S5]GEQ[S5]DR-NH2; staple 15-19, 4-8; SMILES CC[C@H](C)[C@@H]1NC(=O)CNC(=O)[C@@](C)(NC(=O)[C@H](CC(=O)O)NC(=O)[C@H](CCCCN)NC(=O)[C@H](CO)NC(C)=O)CCCC=CCCC[C@@](C)(C(=O)N[C@@H](CC(C)C)C(=O)N[C@H](C(=O)N[C@@H](CCSC)C(=O)N[C@@H](CC(C)C)C(=O)N[C@@H](CC(=O)O)C(=O)N[C@@H](CCC(=O)O)C(=O)N[C@@]2(C)CCCC=CCCC[C@@](C)(C(=O)N[C@@H](CC(=O)O)C(=O)N[C@@H](CCCNC(=N)N)C(N)=O)NC(=O)[C@H](CCC(N)=O)NC(=O)[C@H](CCC(=O)O)NC(=O)CNC2=O)C(C)C)NC(=O)[C@H](CCCNC(=N)N)NC1=O) [SP1] | largest helical content | substantially inhibited |  |  |  |
| Ac-SKDA(S5)IRT(S5)VM(S5)DEQ(S5)EQL-amide (Ac-SKDA[S5]IRT[S5]VM[S5]DEQ[S5]EQL-NH2; staple 12-16, 5-9; SMILES CC[C@H](C)[C@@H]1NC(=O)[C@@](C)(NC(=O)[C@H](C)NC(=O)[C@H](CC(=O)O)NC(=O)[C@H](CCCCN)NC(=O)[C@H](CO)NC(C)=O)CCCC=CCCC[C@@](C)(C(=O)N[C@H](C(=O)N[C@@H](CCSC)C(=O)N[C@@]2(C)CCCC=CCCC[C@@](C)(C(=O)N[C@@H](CCC(=O)O)C(=O)N[C@@H](CCC(N)=O)C(=O)N[C@@H](CC(C)C)C(N)=O)NC(=O)[C@H](CCC(N)=O)NC(=O)[C@H](CCC(=O)O)NC(=O)[C@H](CC(=O)O)NC2=O)C(C)C)NC(=O)[C@H]([C@@H](C)O)NC(=O)[C@H](CCCNC(=N)N)NC1=O) [SP4] | largest helical content | substantially inhibited |  |  |  |
| EESKDAGIRTLVMLDEQGEQLD [Peptide P0, non-stapled SNAP-25A fragment used as a control, reference compound] |  |  | 5 | little effect | little effect |
